Experimental data published in patent publication US20230203029A1 (priority 2020, published 2023).
Read-outs that look alike come from different tables or passages of the source.

What was measured:
[1] = molecular target: T1, human MERTK cytoplasmic domain (Homo sapiens, UniProt Q12866); assay: biochemical
T1 construct: human MERTK cytoplasmic domain (Carna Biosciences 08-108); purchased Carna Biosciences 08-108
Protocol: Assay 1a—MERTK HTRF KinEASE-TK Assay
The enzymatic reaction was carried out for 30 min at room temperature. 10 μL TK Antibody-Cryptate/Streptavidin-XL665 (Cisbio 610SAXLG) was then added for 60 min, including EDTA containing detection buffer (Cisbio 62SDBRDF) to stop the reaction.

[2] = molecular target: T2, recombinant human AXL expressed in live cells (HEK, AXL-Nanoluc fusion vector) (Homo sapiens, UniProt P30530); assay: Assay 3 AXL cellular target engagement (NanoBRET TE) assay; assay type: cell-based
T2 construct: host or cells: HEK
T2 sequence (P30530 26-894): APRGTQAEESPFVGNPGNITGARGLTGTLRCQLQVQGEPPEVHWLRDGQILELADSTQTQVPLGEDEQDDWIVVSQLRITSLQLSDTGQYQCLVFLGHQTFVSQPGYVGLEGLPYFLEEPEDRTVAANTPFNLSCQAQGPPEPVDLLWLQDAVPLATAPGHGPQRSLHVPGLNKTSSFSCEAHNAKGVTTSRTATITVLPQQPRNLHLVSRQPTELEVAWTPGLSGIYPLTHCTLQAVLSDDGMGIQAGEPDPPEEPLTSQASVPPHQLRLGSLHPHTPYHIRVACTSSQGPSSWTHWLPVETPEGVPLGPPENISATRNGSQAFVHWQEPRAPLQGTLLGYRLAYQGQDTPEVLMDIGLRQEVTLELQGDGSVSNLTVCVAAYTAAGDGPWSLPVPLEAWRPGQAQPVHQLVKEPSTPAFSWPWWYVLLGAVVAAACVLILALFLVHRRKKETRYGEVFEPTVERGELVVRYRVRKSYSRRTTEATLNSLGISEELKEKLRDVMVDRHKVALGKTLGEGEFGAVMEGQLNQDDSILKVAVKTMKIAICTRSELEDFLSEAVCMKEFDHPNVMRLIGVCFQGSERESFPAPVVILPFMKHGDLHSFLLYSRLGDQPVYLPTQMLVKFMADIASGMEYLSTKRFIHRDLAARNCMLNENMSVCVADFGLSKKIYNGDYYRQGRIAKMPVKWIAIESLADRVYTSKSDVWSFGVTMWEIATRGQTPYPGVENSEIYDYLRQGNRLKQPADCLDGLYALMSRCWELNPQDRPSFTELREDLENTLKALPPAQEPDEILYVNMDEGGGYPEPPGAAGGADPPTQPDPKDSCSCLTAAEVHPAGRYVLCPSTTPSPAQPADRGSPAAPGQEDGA
Protocol: Assay 3—AXL Cellular Target Engagement (TE) Assay
Compound affinities for recombinant human AXL expressed in live cells were assessed via the Promega NanoBRET TE assay technology. Human Embryonic Kidney (HEK) cells were transiently transfected with the AXL-Nanoluc fusion vector (Promega Cat NV1071) using Fugene HD reagent (Promega E2311). […] Incubations were conducted for 2 h at 37° C., after which 20 μl NanoGlo substrate/inhibitor mix (Promega N2161) was added to each well for 2-3 min. The plate was then read on a BMG Pherastar FSX using a NanoBRET filter to record donor emission at 450 nm and acceptor fluorophore emission at 610 nm. From this the BRET ratio (acceptor 610 nm/donor 450 nm) for each data point was calculated.

[3] = molecular target: T3, human AXL cytoplasmic domain (Homo sapiens, UniProt P30530); assay: Assay 1b AXL HTRF KinEASE-TK assay; assay type: biochemical
T3 construct: human AXL cytoplasmic domain (Thermo Fisher A31515); purchased Thermo Fisher A31515
T3 sequence (P30530 473-894 limits assumed): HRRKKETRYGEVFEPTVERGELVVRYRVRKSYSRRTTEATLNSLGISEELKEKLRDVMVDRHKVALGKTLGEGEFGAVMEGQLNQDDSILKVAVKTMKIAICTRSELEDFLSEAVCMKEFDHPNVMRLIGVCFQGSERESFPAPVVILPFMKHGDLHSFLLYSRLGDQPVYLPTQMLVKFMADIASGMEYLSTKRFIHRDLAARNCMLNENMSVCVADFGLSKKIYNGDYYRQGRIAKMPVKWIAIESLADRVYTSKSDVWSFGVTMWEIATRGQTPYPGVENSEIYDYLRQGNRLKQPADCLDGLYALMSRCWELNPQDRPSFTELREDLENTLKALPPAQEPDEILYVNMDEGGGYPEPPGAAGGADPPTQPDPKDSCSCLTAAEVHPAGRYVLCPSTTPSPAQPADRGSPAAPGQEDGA
Outline: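 Recombinant cytoplasmic domain (5 nM) in kinase buffer with 5 mM MgCl2, 1 mM MnCl2, 1 mM DTT, 50 nM SEB plus test compounds; reaction 30 min at room temperature. EDTA-containing detection with TK antibody-cryptate/streptavidin-XL665 for 60 min; HTRF 665/620 ratio read. IC50 from 4-parameter logistic fit with variable slope.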

[4] = 30 uM ATP, read-out: Assay 1a Mer IC50 30 uM ATP

T1 sequence (Q12866 527-999): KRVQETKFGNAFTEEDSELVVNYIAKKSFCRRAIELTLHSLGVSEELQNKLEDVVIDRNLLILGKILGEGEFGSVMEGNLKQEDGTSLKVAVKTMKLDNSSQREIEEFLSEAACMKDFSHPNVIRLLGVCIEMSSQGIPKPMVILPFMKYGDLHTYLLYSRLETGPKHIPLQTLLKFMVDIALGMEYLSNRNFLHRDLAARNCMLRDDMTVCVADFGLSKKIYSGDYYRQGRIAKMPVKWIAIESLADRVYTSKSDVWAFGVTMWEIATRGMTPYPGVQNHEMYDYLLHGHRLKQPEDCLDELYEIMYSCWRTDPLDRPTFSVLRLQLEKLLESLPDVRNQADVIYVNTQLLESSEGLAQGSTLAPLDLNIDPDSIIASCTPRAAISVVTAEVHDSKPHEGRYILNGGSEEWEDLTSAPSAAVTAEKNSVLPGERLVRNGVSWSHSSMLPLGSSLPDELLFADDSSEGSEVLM

| SMILES | IC50 [1, 4] | IC50 [2] | IC50 [3] | IC50 [1] |
| --- | --- | --- | --- | --- |
| CN1CCC(NC(=O)c2cc3c(Oc4ccc(NC(=O)c5cn(C6CC6)c(=O)n(-c6ccc(F)cc6)c5=O)cc4)ccnc3cn2)CC1 [Example 15, 4-[4-[[1-Cyclopropyl-3-(4-fluorophenyl)-2,4-dioxo-pyrimidine-5-carbonyl]amino]phenoxy]-N-(1-methyl-4-piperidyl)-1,7-naphthyridine-6-carboxamide] | 22 nM | 33.2 nM | 10 nM |  |
| C[C@H](CO)n1cc(C(=O)Nc2ccc(Oc3ccnc4cnc(C(=O)NC5CCN(C)CC5)cc34)cc2)c(=O)n(-c2ccc(F)cc2)c1=O [Example 14, 4-[4-[[3-(4-Fluorophenyl)-2,4-dioxo-1-[(1R)-2-hydroxy-1-methyl-ethyl]pyrimidine-5-carbonyl]amino]phenoxy]-N-(1-methyl-4-piperidyl)-1,7-naphthyridine-6-carboxamide] | 14 nM | 31 nM | 10 nM |  |
| CC(C)n1cc(C(=O)Nc2ccc(Oc3ccnc4cnc(N5CCNCC5)cc34)cc2)c(=O)n(-c2ccc(F)cn2)c1=O [Example 12.4, 3-(5-fluoro-2-pyridyl)-1-isopropyl-2,4-dioxo-N-[4-[(6-piperazin-1-yl-1,7-naphthyridin-4-yl)oxy]phenyl]pyrimidine-5-carboxamide] | 8 nM | 12.8 nM | 6 nM |  |
| CN1CCC(NC(=O)c2cc3c(Nc4ccc(NC(=O)c5cccn(-c6ccccc6)c5=O)cc4)ccnc3cn2)CC1 [Example 3, N-(1-methyl-4-piperidyl)-4-[4-[(2-oxo-1-phenyl-pyridine-3-carbonyl)amino]anilino]-1,7-naphthyridine-6-carboxamide] | 55 nM | 7 nM | 200 nM |  |
| CC(C)n1cc(C(=O)Nc2ccc(Oc3ccnc4cnc(N5CCNCC5)cc34)cc2)c(=O)c(-c2ccc(F)cc2)c1 [Example 13, 5-(4-Fluorophenyl)-1-isopropyl-4-oxo-N-[4-[(6-piperazin-1-yl-1,7-naphthyridin-4-yl)oxy]phenyl]pyridine-3-carboxamide] | 1 nM | 7.1 nM | 6 nM |  |
| CC(C)n1cc(C(=O)Nc2ccc(Oc3ccnc4cnc(N5CCNCC5)cc34)cc2)c(=O)n(-c2ccccn2)c1=O [Example 12.3, 1-isopropyl-2,4-dioxo-N-[4-[(6-piperazin-1-yl-1,7-naphthyridin-4-yl)oxy]phenyl]-3-(2-pyridyl)pyrimidine-5-carboxamide] | 56 nM | 80.8 nM | 19 nM |  |
| O=C(Nc1ccc(Oc2ccnc3cnc(N4CCNCC4)cc23)cc1)c1cccn(-c2ccc(F)cc2)c1=O [Example 12.2, 1-(4-fluorophenyl)-2-oxo-N-[4-[(6-piperazin-1-yl-1,7-naphthyridin-4-yl)oxy]phenyl]pyridine-3-carboxamide] | 20 nM | 28.8 nM | 16 nM |  |
| Cn1cc(C(=O)Nc2ccc(Oc3ccnc4cnc(N5CCNCC5)cc34)cc2)c(=O)c(-c2ccc(F)cc2)c1 [Example 13.1, 5-(4-fluorophenyl)-1-methyl-4-oxo-N-[4-[(6-piperazin-1-yl-1,7-naphthyridin-4-yl)oxy]phenyl]pyridine-3-carboxamide] | 4 nM | 15.9 nM | 10 nM |  |
| Cc1cc(NC(=O)c2cccn(-c3ccccc3)c2=O)ccc1Oc1ccnc2cnc(N3CCNCC3)cc12 [Example 30, N-[3-methyl-4-[(6-piperazin-1-yl-1,7-naphthyridin-4-yl)oxy]phenyl]-2-oxo-1-phenyl-pyridine-3-carboxamide] |  | 339 nM | 870 nM | 13 nM |

Further lines, with some results ahead:

| IC50 [1, 4] | IC50 [2] | IC50 [3] | SMILES | IC50 [1] |
| --- | --- | --- | --- | --- |
| 8 nM | 63.8 nM | 38 nM | CN1CCC(NC(=O)c2cc3c(Oc4ccc(NC(=O)c5cccn(-c6ccccc6)c5=O)cc4F)ccnc3cn2)CC1 [Example 33, 4-[2-fluoro-4-[(2-oxo-1-phenyl-pyridine-3-carbonyl)amino]phenoxy]-N-(1-methyl-4-piperidyl)-1,7-naphthyridine-6-carboxamide] |  |
| 2 nM | 6.1 nM | 5 nM | CC(C)n1cc(C(=O)Nc2ccc(Oc3ccnc4cnc(C(=O)NC5CCN(C)CC5)cc34)cc2)c(=O)c(-c2ccc(F)cc2)c1 [Example 37.1, 4-[4-[[5-(4-fluorophenyl)-1-isopropyl-4-oxo-pyridine-3-carbonyl]amino]phenoxy]-N-(1-methyl-4-piperidyl)-1,7-naphthyridine-6-carboxamide] |  |
| 20 nM | 25.7 nM | 5 nM | O=C(Nc1ccc(Oc2ccnc3cnc(N4CCNCC4)cc23)cc1)c1cn(C2CC2)c(=O)n(-c2ccc(F)cc2)c1=O [Example 36, 1-cyclopropyl-3-(4-fluorophenyl)-2,4-dioxo-N-[4-[(6-piperazin-1-yl-1,7-naphthyridin-4-yl)oxy]phenyl]pyrimidine-5-carboxamide] |  |
| 3 nM |  | 7 nM | O=C(Nc1ccc(Oc2ccnc3cnc(N4CCN(C5COC5)CC4)cc23)cn1)c1ccnn(-c2ccc(F)cc2)c1=O [Example 20, 2-(4-fluorophenyl)-N-[5-[[6-[4-(oxetan-3-yl)piperazin-1-yl]-1,7-naphthyridin-4-yl]oxy]-2-pyridyl]-3-oxo-pyridazine-4-carboxamide] |  |
| 15 nM | 14 nM | 9 nM | CC(C)n1cc(C(=O)Nc2ccc(Oc3ccnc4cnc(C(=O)NC5CCN(C)CC5)cc34)cn2)c(=O)n(-c2ccc(F)cc2)c1=O [Example 27.5, 4-[[6-[[3-(4-fluorophenyl)-1-isopropyl-2,4-dioxo-pyrimidine-5-carbonyl]amino]-3-pyridyl]oxy]-N-(1-methyl-4-piperidyl)-1,7-naphthyridine-6-carboxamide] |  |
| 3 nM | 33.5 nM | 7 nM | CN1CCC(NC(=O)c2cc3c(Oc4ccc(NC(=O)c5cn(C)cc(-c6ccc(F)cc6)c5=O)cc4)ccnc3cn2)CC1 [Example 37, 4-[4-[[5-(4-fluorophenyl)-1-methyl-4-oxo-pyridine-3-carbonyl]amino]phenoxy]-N-(1-methyl-4-piperidyl)-1,7-naphthyridine-6-carboxamide] |  |
